Data published in patent US10988478B1, “Pyrazolo[1,5a]pyrimidine derivatives as IRAK4 modulators” (Genentech, Inc., priority 2015, dated 2021).

Target: human IRAK4 (Homo sapiens (Human), UniProt Q9NWZ3)
Assay: IRAK4 kinase inhibition, Transcreener fluorescence polarization ADP assay
Type: biochemical
Settings: recombinant full-length His6-IRAK4; 125 uM ATP; 90 min; Ki computed using ATP Km 642 uM
Experimental: Compounds were assayed for inhibition of human IRAK4 and IRAK1 catalytic activity using recombinant enzyme produced from insect cells. Full-length IRAK4 protein, carrying an N-terminal His6-Tag, was obtained from Life Technologies (Carlsbad, Calif., USA). The IRAK1 construct was produced internally and was comprised of IRAK1 residues Arg194 to Ser712, preceded by an NH2-terminal His6 tag and the coding sequence for glutathione-S-transferase.

human IRAK4, sequence (Q9NWZ3 whole entry): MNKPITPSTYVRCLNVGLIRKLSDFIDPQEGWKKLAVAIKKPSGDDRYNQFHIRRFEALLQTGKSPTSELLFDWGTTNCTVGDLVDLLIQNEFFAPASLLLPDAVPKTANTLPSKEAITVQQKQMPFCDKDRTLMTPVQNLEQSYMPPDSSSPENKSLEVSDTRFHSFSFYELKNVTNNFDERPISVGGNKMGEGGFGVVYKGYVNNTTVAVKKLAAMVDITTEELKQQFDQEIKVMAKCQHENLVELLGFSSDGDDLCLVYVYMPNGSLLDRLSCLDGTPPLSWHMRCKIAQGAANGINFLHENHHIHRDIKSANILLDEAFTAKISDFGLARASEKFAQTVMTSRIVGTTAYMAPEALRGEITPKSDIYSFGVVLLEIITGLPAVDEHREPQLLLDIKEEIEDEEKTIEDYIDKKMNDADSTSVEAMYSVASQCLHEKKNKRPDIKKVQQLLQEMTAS

SMILES | Ki [nM]
C[C@]1(C(F)(F)F)Cc2cc(NC(=O)c3cnn4cccnc34)c(N3CCOCC3)cc2O1 [Example 76, (R)—N-(2-Methyl-6-morpholino-2-(trifluoromethyl)-2,3-dihydrobenzofuran-5-yl)pyrazolo[1,5-a]pyrimidine-3-carboxamide] | 25
CN1CC[C@@H](N2Cc3cc(NC(=O)c4cnn5cccnc45)c(N4CCOCC4)cc3C2=O)C1=O [Example 553, N-[2-[(3R)-1-methyl-2-oxo-pyrrolidin-3-yl]-6-morpholino-1-oxo-isoindolin-5-yl]pyrazolo[1,5-a]pyrimidine-3-carboxamide] | 58
CC1(C)Cc2cc(NC(=O)c3cnn4cccnc34)c(N3CCC4(CC3)CNC(=O)C4)cc2O1 [Example 213, N-(2,2-dimethyl-6-(3-oxo-2,8-diazaspiro[4.5]decan-8-yl)-2,3-dihydrobenzofuran-5-yl)pyrazolo[1,5-a]pyrimidine-3-] | 3
C[C@@]1(COC(F)F)Cc2cc(NC(=O)c3cnn4cccnc34)c(N3CCOCC3)cc2O1 [Example 156, (S)—N-(2-((difluoromethoxy)methyl)-2-Methyl-6-morpholino-2,3-dihydrobenzofuran-5-yl)pyrazolo[1,5-a]pyrimidine-3-carboxamide] | 27
CC1(C)Cc2cc(NC(=O)c3cnn4cccnc34)c(N3CCN4CCC[C@H]4C3)cc2O1 [Example 442, (S)-N-(6-(hexahydropyrrolo[1,2-a]pyrazin-2(1H)-yl)-2,2-dimethyl-2,3-dihydrobenzofuran-5-yl)pyrazolo[1,5-a]pyrimidine-3-carboxamide] | 96
CC1(C)Cc2cc(NC(=O)c3cnn4cccnc34)c(N3CCC4(CC3)CC(O)C4)cc2O1 [Example 110, N-(6-(2-hydroxy-7-azaspiro[3.5]nonan-7-yl)-2,2-dimethyl-2,3-dihydrobenzofuran-5-yl)pyrazolo[1,5-a]pyrimidine-3-carboxamide] | 2.5
CN1CCC(N2Cc3cc(NC(=O)c4cnn5cccnc45)c(N4CCOCC4)cc3C2=O)CC1 [Example 180, N-[2-(1-methyl-4-piperidyl)-6-morpholino-1-oxo-isoindolin-5-yl]pyrazolo[1,5-a]pyrimidine-3-carboxamide] | 3.8
CC1(C)Cc2cc(NC(=O)c3cnn4cccnc34)c(N3CCN(C(C)(C)C(N)=O)CC3)cc2O1 [Example 226, N-(6-(4-(1-Amino-2-methyl-1-oxopropan-2-yl)piperazin-1-yl)-2,2-dimethyl-2,3-dihydrobenzofuran-5-yl)pyrazolo[1,5-a]pyrimidine-3-carboxamide] | 6
CC1(C)Cc2cc(NC(=O)c3cnn4cccnc34)c(OC[C@H]3CCNC(=O)C3)cc2O1 [Example 306, (S)-N-(2,2-Dimethyl-6-((2-oxopiperidin-4-yl)methoxy)-2,3-dihydrobenzofuran-5-yl)pyrazolo[1,5-α]pyrimidine-3-carboxamide] | 52
CC(C(=O)NC1CC1)N1CCN(c2cc3c(cc2NC(=O)c2cnn4cccnc24)CC(C)(C)O3)CC1 (stereo not shown) [Example 244, N-(6-(4-(1-(Cyclopropylamino)-1-oxopropan-2-yl)piperazin-1-yl)-2,2-dimethyl-2,3-dihydrobenzofuran-5-yl)pyrazolo[1,5-a]pyrimidine-3-carboxamide] | 36
CC1(C)Cc2cc(NC(=O)c3cnn4cccnc34)c(N3CCOCC3)cc2C1=O [Example 499, N-(2,2-Dimethyl-6-morpholino-1-oxo-2,3-dihydro-1H-inden-5-yl)pyrazolo[1,5-a]pyrimidine-3-carboxamide] | 30
Cn1cncc1C1CCN(c2cc3c(cc2NC(=O)c2cnn4cccnc24)CC(C)(C)O3)C1 (stereo not shown) [Example 188, N-[2,2-dimethyl-6-[3-(3-methylimidazol-4-yl)pyrrolidin-1-yl]-3H-benzofuran-5-yl]pyrazolo[1,5-a]pyrimidine-3-carboxamide] | 84
O=C(Nc1cc2c(cc1N1CCOCC1)OC1(CCN(CC(F)F)CC1)C2)c1cnn2cccnc12 [Example 370, N-[1′-(2,2-difluoroethyl)-6-morpholino-spiro[3H-benzofuran-2,4′-piperidine]-5-yl]pyrazolo[1,5-a]pyrimidine-3-carboxamide] | 5.8
C[C@H](N)CN1CCN(c2cc3c(cc2NC(=O)c2cnn4cccnc24)CC(C)(C)O3)CC1 [Example 478, N-[6-[4-[(2S)-2-Aminopropyl]piperazin-1-yl]-2,2-dimethyl-3H-benzofuran-5-yl]pyrazolo[1,5-a]pyrimidine-3-carboxamide] | 6
O=C(Nc1cc2c(cc1N1CCOCC1)OCCN2)c1cnn2cccnc12 [Example 9, N-(7-Morpholino-3,4-dihydro-2H-benzo[b][1,4]oxazin-6-yl)pyrazolo[1,5-a]pyrimidine-3-carboxamide] | 98
CC(C)(O)[C@]1(C)Cc2cc(NC(=O)c3cnn4cccnc34)c(N3CCOCC3)cc2O1 [Example 158, (S)—N-(2-(2-Hydroxypropan-2-yl)-2-methyl-6-morpholino-2,3-dihydrobenzofuran-5-yl)pyrazolo[1,5-a]pyrimidine-3-carboxamide] | 27
CC1(COC(F)F)Cc2cc(NC(=O)c3cnn4cccnc34)c(N3CCN(CC(F)F)CC3)cc2O1 (stereo not shown) [Example 362, N-(6-(4-(2,2-difluoroethyl)piperazin-1-yl)-2-((difluoromethoxy)methyl)-2-methyl-2,3-dihydrobenzofuran-5-yl)pyrazolo[1,5-a]pyrimidine-3-carboxamide] | 6.7
CC1(C)Cc2cc(NC(=O)c3cnn4cccnc34)c(N3CC4C(C3)C4(F)F)cc2O1 (stereo not shown) [Example 112, N-(6-(6,6-difluoro-3-azabicyclo[3.1.0]hexan-3-yl)-2,2-dimethyl-2,3-dihydrobenzofuran-5-yl)pyrazolo[1,5-a]pyrimidine-3-carboxamide] | 78

The remaining compounds from weak to strong by Ki, led by results:

Ki [nM] | SMILES
810 | CC1(C)Cc2cc(NC(=O)c3cnn4cccnc34)c(N3CC4COCC(C3)C4O)cc2O1 (stereo not shown) [Example 237, N-(6-(9-Hydroxy-3-oxa-7-azabicyclo[3.3.1]nonan-7-yl)-2,2-dimethyl-2,3-dihydrobenzofuran-5-yl)pyrazolo[1,5-a]pyrimidine-3-carboxamide]
33 | CC1(C)Cc2cc(NC(=O)c3cnn4cccnc34)c(N3CC4CCOC4C3)cc2O1 (stereo not shown) [Example 234, N-(6-(Hexahydro-5H-furo[2,3-c]pyrrol-5-yl)-2,2-dimethyl-2,3-dihydrobenzofuran-5-yl)pyrazolo[1,5-a]pyrimidine-3-carboxamide]
27 | C[C@@]1(O)COc2cc(N3CCOCC3)c(NC(=O)c3cnn4cccnc34)cc2C1 (single isomer, unassigned) [Example 28]
22 | CC1CCCN1c1cc2c(cc1NC(=O)c1cnn3cccnc13)CC(C)(C)O2 (stereo not shown) [Example 104, N-[2,2-dimethyl-6-(2-methylpyrrolidin-1-yl)-3H-benzofuran-5-yl]pyrazolo[1,5-a]pyrimidine-3-carboxamide]
13 | Cc1cnc2c(C(=O)Nc3cc4c(cc3N3CCOCC3)OC(C)(C(F)F)C4)cnn2c1 (stereo not shown) [Example 144, N-(2-(Difluoromethyl)-2-methyl-6-morpholino-2,3-dihydrobenzofuran-5-yl)-6-methylpyrazolo[1,5-a]pyrimidine-3-carboxamide]
12 | C[C@@]1(CO)Cc2cc(NC(=O)c3cnn4cccnc34)c(N3C[C@@H]4[C@H](C3)[C@H]4C(N)=O)cc2O1 [Example 414, N-((S)-6-((1R,5S,6S)-6-carbamoyl-3-azabicyclo[3.1.0]hexan-3-yl)-2-(hydroxymethyl)-2-methyl-2,3-dihydrobenzofuran-5-yl)pyrazolo[1,5-a]pyrimidine-3-carboxamide]
8.4 | C[C@@H](O)[C@@H](F)CN1Cc2cc(NC(=O)c3cnn4cccnc34)c(N3CCOCC3)cc2C1=O [Example 558, N-[2-[(2S,3R)-2-fluoro-3-hydroxy-butyl]-6-morpholino-1-oxo-isoindolin-5-yl]pyrazolo[1,5-a]pyrimidine-3-carboxamide]
6.8 | CC(C)N1Cc2cc(NC(=O)c3cnn4cccnc34)c(N3CCOCC3)cc2C1=O [Example 138, N-(2-Isopropyl-6-morpholino-1-oxoisoindolin-5-yl)pyrazolo[1,5-a]pyrimidine-3-carboxamide]
5 | O=C(Nc1cc2c(cc1N1CCOCC1)C(=O)N([C@H]1CCOC[C@@H]1F)C2)c1cnn2cccnc12 [Example 399, N-[2-[(3R,4S)-3-Fluorotetrahydropyran-4-yl]-6-morpholino-1-oxo-isoindolin-5-yl]pyrazolo[1,5-a]pyrimidine-3-carboxamide]
2 | CC(C)(O)[C@H](F)CN1Cc2cc(NC(=O)c3cnn4cccnc34)c(N3CCC(F)(F)C3)cc2C1=O [Example 261, N-[6-(3,3-Difluoropyrrolidin-1-yl)-2-[(2R)-2-fluoro-3-hydroxy-3-methyl-butyl]-1-oxo-isoindolin-5-yl]pyrazolo[1,5-a]pyrimidine-3-carboxamide]
2 | CC(C)(O)[C@H](F)CN1Cc2cc(NC(=O)c3cnn4cc(Cl)cnc34)c(N3CCN(CC(F)F)CC3)cc2C1=O [Example 285, 6-Chloro-N-[6-[4-(2,2-difluoroethyl)piperazin-1-yl]-2-[(2R)-2-fluoro-3-hydroxy-3-methyl-butyl]-1-oxo-isoindolin-5-yl]pyrazolo[1,5-a]pyrimidine-3-carboxamide]
1.7 | CN1CCC2(CC1)Cc1cc(NC(=O)c3cnn4cccnc34)c(N3CCN(CC(N)=O)CC3)cc1O2 [Example 373, N-(6-(4-(2-Amino-2-oxoethyl)piperazin-1-yl)-1′-methyl-3H-spiro[benzofuran-2,4′-piperidin]-5-yl)pyrazolo[1,5-a]pyrimidine-3-carboxamide]
1.7 | CC(C)(O)[C@H](F)CN1Cc2cc(NC(=O)c3cnn4cc(Cl)cnc34)c(N3CCOCC3)cc2C1=O [Example 271, 6-Chloro-N-[2-[(2R)-2-fluoro-3-hydroxy-3-methyl-butyl]-6-morpholino-1-oxo-isoindolin-5-yl]pyrazolo[1,5-a]pyrimidine-3-carboxamide]
